Reference: patent publication US20090099240A1, “METHODS FOR TREATING ENERGY METABOLISM DISORDERS BY INHIBITING FATTY ACID AMIDE HYDROLASE ACTIVITY” (N.V. Organon, priority 2006, published 2009)

What was measured:
[1] = test system: APOE*3-Leiden transgenic (E3L) mice; test: Organ and tissue weights in E3L mice on high cholesterol diet
From the text: (§1) We assessed the effect of inhibiting FAAH activity on body weight, body fat, triglyceride levels, cholesterol levels in APOE*3-Leiden transgenic (E3L) mice, an animal model of hyperlipidemia. […] See van Vlijmen et al. (1994), J. Clin Invest., 93:1403-1410. Indeed, upon high fat and cholesterol feeding, these mice develop various stages of atherosclerotic lesions depending on plasma total cholesterol levels and resembling those found in humans. See Groot et al. (1996), Arterioscler. Thromb. Vasc. Biol., 16:926-933; Versch ren et al. (2005), Arterioscler. Thromb. Vasc Biol., 25:161-167; and Lutgens et al. (1999), Circulation; 99(2):276-283). Thus, the E3L mouse is a suitable model for the investigation of the efficacy of anti-atherosclerotic drugs.
(§2) E3L mice were fed a high cholesterol (1% w/w) diet (HC diet) for a period of four weeks. Animals were then matched based on their plasma cholesterol levels, and were divided into five groups, each of which was maintained on an HC diet.
(§3) Blood samples were collected at days 0, 14, and 28 of the treatment period. At the end of the treatment period, animals were sacrificed, and various tissues and organs were analyzed. Unless otherwise indicated, values are mean±standard deviation (SD).

[2] = test system: APOE*3-Leiden transgenic (E3L) mice; test: Body weight in E3L mice on high cholesterol diet; format: in vivo, mouse
From the text: as §1, §2

[3] = test system: APOE*3-Leiden transgenic (E3L) mice; test: Food intake per animal per day in E3L mice; format: in vivo, mouse
From the text: as §1, §2

[4] = test system: APOE*3-Leiden transgenic (E3L) mice; test: Total plasma cholesterol in E3L mice; format: in vivo, mouse
From the text: as §1, §2, §3

[5] = test system: APOE*3-Leiden transgenic (E3L) mice; test: Plasma lipoprotein profiles (size fractionation of pooled plasma) in E3L mice; format: in vivo, mouse; settings: day 28, FIG. 1
Experimental: as §2
Lipoprotein profiles were determined in pooled plasma from day 28, as described in Verschuren et al. (2005), Arterioscler. Thromb. Vasc Biol., 25:161-167. An equal amount of plasma per animal was used to prepare a plasma pool for each group. Plasma lipoproteins in each plasma pool were separated by size fractionation. Typically, VLDL, IDL/LDL and HDL lipoproteins are eluted in fractions 4-8, fractions 11-16 and fractions 17-20, respectively.

[6] = test system: APOE*3-Leiden transgenic (E3L) mice; test: Total plasma triglyceride levels in E3L mice; format: in vivo, mouse
From the text: as §1, §2, §3

[7] = test system: APOE*3-Leiden transgenic (E3L) mice; test: Plasma alanine aminotransferase (ALAT) activity in E3L mice; format: in vivo, mouse
Experimental: as §2
Levels of plasma alanine aminotransferase (ALAT) were determined on day 28 (table 7). Plasma ALAT is a measure of hepatic stress and increases in plasma ALAT levels are often associated with liver damage. […] Thus, a reduction in plasma ALAT levels is associated with improved liver function.

[8] = test system: APOE*3-Leiden transgenic (E3L) mice; test: Oil Red O staining of liver sections (steatosis) in E3L mice; format: in vivo, mouse; settings: compared to the control vehicle group
From the text: as §2
In order to examine cellular stress in the liver due to lipid storage (steatosis), we stained frozen liver tissue sections with Oil Red O a fat-soluble diazo dye used to stain for lipids. Digital photomicrographs of liver cross sections were taken for each individual animal (magnification: 20 fold). […]

[9] = test system: APOE*3-Leiden transgenic (E3L) mice; test: Lipid content of liver (TLC) in E3L mice; format: in vivo, mouse
From the text: as §2
A reduction of Red Oil O staining in liver generally indicates reduced liver lipid content. We therefore quantified levels of lipids in livers from each animal, as described in Havekes et al. (1987), Biochem. J., 247:739-746; Delsing et al. (2005), J. Cardiovasc. Pharmacol., 45:53-60; and Post et al. (2004), ATVB, 24:768-774. Liver tissue homogenates were prepared. Lipids were extracted, dried under nitrogen, dissolved in chloroform, and spotted onto a channeled 20×20 cm silica gel thin layer chromatography (TLC) plate. Lipids were then separated, TLC plates were warmed up to visualize bands, and bands were quantified using an internal standard as reference.

[10] = test system: APOE*3-Leiden transgenic (E3L) mice; test: Plasma leptin ELISA in E3L mice; format: in vivo, mouse
From the text: as §2
Accordingly, we quantified plasma leptin levels after a four hour fasting period at treatment time points 0, 14, and 28 days using a mouse-specific leptin ELISA or (kit number MOB00 from R&D Systems, Minneapolis, Minn.) according to the guidelines and protocol specified by the manufacturer.

[11] = test system: APOE*3-Leiden transgenic (E3L) mice; test: Plasma adiponectin ELISA in E3L mice; format: in vivo, mouse
From the text: as §2
We determined plasma adiponectin levels after a four hour fasting period at 0, 14, 28 days, using a mouse-specific adiponectin/Acrp30 ELISA (kit number MRP300 from R&D Systems, Minneapolis, Minn.).

[12] = test system: APOE*3-Leiden transgenic (E3L) mice; test: Plasma ketone body (D-3-hydroxybutyrate) levels in E3L mice; format: in vivo, mouse
From the text: as §2
We quantified plasma D-3-hydroxybutyrate (b-HBA; ketone bodies) levels were quantified in plasma samples obtained after a 4-hour fasting period at time points t=0, t=2, and t=4 weeks using kits #2940 (b-HBA reagent set) and #2947 (b-HBA control set)) according to the guidelines and protocol specified by the manufacturer (Instruchemie, Delfzijl, The Netherlands).

cynomolgus monkeys = test: Time course of plasma OEA levels after oral dosing in cynomolgus monkeys; format: in vivo, cynomolgus monkey; settings: oral 50-1500 mg/kg
Experimental: Afterwards, a time course of plasma OEA levels was determined for each subject by obtaining a plasma sample at 0.5, 1, 2, 4, 8, 12, and 24 hours post-administration.

[13] = E3L mice, HC diet, end of four-week treatment, mean ± SD

NC(=O)c1cccc(-c2cccc(OC(=O)NC3CCCCC3)c2)c1 [KDS-4103]
Organ and Tissue Weights: Brain [1, 13]: ^#0.46 ± 0.02^ g
Organ and Tissue Weights: Fat (gonadal fat) [1, 13]: *0.22 ± 0.04 g
Organ and Tissue Weights: Heart [1, 13]: 0.14 ± 0.02 g
Organ and Tissue Weights: Liver [1, 13]: 1.03 ± 0.14 g
Organ and Tissue Weights: Lung [1, 13]: 0.18 ± 0.01 g
brain weight, in words ([1]; end of treatment): slight, but significant increase
heart, liver, or lung weights, in words ([1]; end of treatment): No significant changes
gonadal fat weight, in words ([1]; relative to the oral vehicle group): significantly lower
body weights, in words ([2]; last time point (4 weeks), within group): significantly reduced
Body Weight ([2]; week 0): 21.8 ± 1.1 g
Body Weight ([2]; week 0.5): 21.9 ± 1.0 g
Body Weight ([2]; week 1): 21.9 ± 1.0 g
Body Weight ([2]; week 1.5): *21.3 ± 0.9 g
Body Weight ([2]; week 2): *21.4 ± 0.9 g
Body Weight ([2]; week 2.5): *21.4 ± 0.9 g
Body Weight ([2]; week 3): *21.3 ± 0.9 g
Body Weight ([2]; week 3.5): 21.5 ± 0.9 g
Body Weight ([2]; week 4): *21.5 ± 1.0 g
Food Intake Per Animal Per Day ([3]; interval 0-0.5 weeks): 2.3 ± 0.1 g
Food Intake Per Animal Per Day ([3]; interval 0.5-1.0 weeks): 2.4 ± 0.1 g
Food Intake Per Animal Per Day ([3]; interval 1.0-1.5 weeks): 2.3 ± 0.2 g
Food Intake Per Animal Per Day ([3]; interval 1.5-2.0 weeks): 2.6 ± 0.1 g
Food Intake Per Animal Per Day ([3]; interval 2.0-2.5 weeks): 2.3 ± 0.3 g
Food Intake Per Animal Per Day ([3]; interval 2.5-3.0 weeks): 2.5 ± 0.1 g
Food Intake Per Animal Per Day ([3]; interval 3.0-3.5 weeks): 2.4 ± 0.3 g
Food Intake Per Animal Per Day ([3]; interval 3.5-4.0 weeks): *2.0 ± 0.1 g
Food Intake Per Animal Per Day ([3]; interval run-in): 2.5 ± 0.5 g
food intake, in words ([3]; last time point): slight, but significant, decrease
Total Plasma Cholesterol ([4]; day 0): 14.3 ± 3.2 mM
Total Plasma Cholesterol ([4]; day 14): ^#19.1 ± 4.9 mM
Total Plasma Cholesterol ([4]; day 28): ^#19.5 ± 4.1 mM
total plasma cholesterol levels, in words ([4]; days 14 and 28, relative to respective control group): slightly and significantly increased
IDL/LDL particle size, in words [5]: slight shift toward larger IDL/LDL particles
VLDL fraction of plasma lipoprotein profile, in words [5]: increase
Total Plasma Triglyceride Levels ([6]; day 0): 1.5 ± 0.4 mM
Total Plasma Triglyceride Levels ([6]; day 14): 1.9 ± 0.6 mM
Total Plasma Triglyceride Levels ([6]; day 28): 1.9 ± 0.5 mM
total plasma triglyceride levels, in words ([6]; relative to respective control group): not significantly changed
Plasma Alanine Amino Transferase Activity ([7]; day 28): *94.0 ± 22.1 U/L
plasma ALAT levels, in words ([7]; day 28, compared to respective control group): significantly decreased
steatotic (Oil Red O) staining in liver, in words [8]: small, but not significant decrease
liver triglycerides (TG), in words ([9]; compared to respective control group): significantly decreased
liver cholesterol esters (CE), in words ([9]; compared to the oral vehicle group): significantly increased
Lipid Content of Liver: Cholesterol Esters ([9]; end of four-week treatment): ^#59 ± 6
Lipid Content of Liver: Free Cholesterol ([9]; end of four-week treatment): 22 ± 2
Lipid Content of Liver: Triglycerides ([9]; end of four-week treatment): *64 ± 14
Plasma Leptin Levels ([10]; day 0, four hour fasting): ^#3.9 ± 1.5 ng/ml
Plasma Leptin Levels ([10]; day 14, four hour fasting): ^#4.5 ± 2.1 ng/ml
Plasma Leptin Levels ([10]; day 28, four hour fasting): ^#5.1 ± 2.3 ng/ml
plasma leptin levels, in words ([10]; relative to the oral vehicle control group): significantly decreased
Plasma Adiponectin Levels ([11]; day 0, four hour fasting): 10.4 ± 1.9 µg/mL
Plasma Adiponectin Levels ([11]; day 14, four hour fasting): 10.2 ± 2.7 µg/mL
Plasma Adiponectin Levels ([11]; day 28, four hour fasting): ^#11.9 ± 1.9^ mg/ml
plasma adiponectin level, in words ([11]; day 28 as compared to day 0): significantly higher
plasma HB levels, in words ([12]; at 28 days, compared to the oral vehicle control group): significantly lower
Plasma Ketone Body (HB) levels ([12]; day 0, 4-hour fasting): 0.73 ± 0.24 mM
Plasma Ketone Body (HB) levels ([12]; day 14, 4-hour fasting): 0.32 ± 0.11 mM
Plasma Ketone Body (HB) levels ([12]; day 28, 4-hour fasting): ^#0.43 ± 0.11^ mM
time of peak plasma OEA levels (cynomolgus monkeys; FIG. 2): four
plasma OEA levels, in words (cynomolgus monkeys; all time points after the peak (up to 24 hours)): remained elevated
plasma OEA levels, in words (cynomolgus monkeys; two hours after administration, FIG. 2): clearly elevated
